Measured values as given in patent US5652359A, “Oligonucleotides containing n-methyl thiolated bases having antiviral activity” (Epoch Pharmaceuticals, Inc., priority 1993, dated 1997).
Converted amounts (≈) assume the structure as drawn.

Assays:
[1] = test system: Human cytomegalovirus (HCMV), strain AD-169; experiment: In vitro human cytomegalovirus inhibition (plaque) assay in MRC-5 cells; format: cell-based
Text: (§1) Cells MRC-5, an immortalized line of diploid, human ([…]) embryonic lung cells were used. These can be obtained from the American Type Culture Collection, Rockville, Md.
Virus Human cytomegalovirus (HCMV), strain AD-169 were used. These can be obtained from the American Type Culture Collection, Rockville, Md.
Medium Growth medium for the MRC-5 cells consisted of Basal Medium Eagle (BME) (GIBCO BRL, Research Products Division, Life Technologies, Inc., Grand Island, N.Y. was the source of all media) with 10% fetal bovine serum (FBS) (Hyclone Laboratories, Logan Utah), 0.035% NaHCO3. Antibiotics were not used in the growth media. Test medium for dilution of HCMV and for preparation and dilution of compounds for the experiments was DMEM, 2% FBS, 0.1% NaHCO3, 50 μg gentamicin/ml.
All compounds were prepared and diluted to the concentrations indicated in test medium. Growth medium was decanted from established monolayers of MRC-5 cells in 24-well tissue culture plates (Corning Glass Works, Corning, N.Y.). One ml of virus, diluted in test medium, was placed in each well except those to be used for cell controls. One ml of sterile test medium was placed in each of these cell control wells. Virus was allowed to adsorb to the cells while plates were centrifuged at 2200 rpm for 30 minutes at room temperature. Medium was aspirated from each well of the plates and 0.8 ml of the proper compound dilution was placed in each of the test wells (2 wells/dilution). Test medium without compound was added (0.8 ml/well) to each cell control and virus control well. Plates were placed in an incubator at 37° C. in a moist atmosphere of 5% CO2, 95% air until plaques could be distinguished in the virus control wells. […] After 15 minutes, the stain was aspirated, the plates were rinsed in running tap water until the water was clear, and the plates were inverted and dried at room temperature. Plaques were counted by use of a dissecting microscope.
ED50 and CD50 values were calculated by regression analysis of the viral plaque data and the visual cell toxicity data, respectively. […] CD50 is the concentration halfway between those at which 100% and 0% cytotoxicity are seen.

[2] = Visual cell toxicity in MRC-5 cells (HCMV assay); format: cell-based; details: human, previous data, read-out: CD50 (cytotoxicity)
Experimental: as §1
All compounds were prepared and diluted to the concentrations indicated in test medium. Growth medium was decanted from established monolayers of MRC-5 cells in 24-well tissue culture plates (Corning Glass Works, Corning, N.Y.). One ml of virus, diluted in test medium, was placed in each well except those to be used for cell controls. One ml of sterile test medium was placed in each of these cell control wells. Virus was allowed to adsorb to the cells while plates were centrifuged at 2200 rpm for 30 minutes at room temperature. Medium was aspirated from each well of the plates and 0.8 ml of the proper compound dilution was placed in each of the test wells (2 wells/dilution). Test medium without compound was added (0.8 ml/well) to each cell control and virus control well. Plates were placed in an incubator at 37° C. in a moist atmosphere of 5% CO2, 95% air until plaques could be distinguished in the virus control wells. […] Plaques were counted by use of a dissecting microscope.
ED50 and CD50 values were calculated by regression analysis of the viral plaque data and the visual cell toxicity data, respectively. […]

[3] = biological target: T1, HIV-1 reverse transcriptase (RT) (Human immunodeficiency virus type 1 group M subtype B, UniProt P04585); experiment: HIV reverse transcriptase assay, HIV-1; format: biochemical; details: RNA-dependent enzyme assay, 30 minutes at 37° C.
T1 construct: as a 66 and 51 kDa protein dimer; made in house; host or cells: bacteria
Experimental: HIV-1 reverse transcriptase (RT) was expressed from a recombinant plasmid in bacteria as a 66 and 51 kDa protein dimer as described by D'Aquila R. T. and Summers W. C., (1989) J. ACQUIRED IMMUNE DEFIC SYNDR 2:579-587.
The standard reaction mixture for the RNA-dependent enzyme assays contained in a 50 uL volume: 50 mM Tris-HCl, pH 7.8, 50 mM KCl, 6 mM MgCl2, 0.1 mg/mL heat-inactivated bovine serum albumin, 1 mM dithiothreitol, 0.5 0D260 units/mL template-primer Poly(rC) oligo(dG)12-18, 10 uM [^3 H]dGTP and 3.3×10^-3 units of HIV-1 RT. A unit was defined as the amount of enzyme necessary to incorporate 1 nanomol of [^3 H]dTMP into the Poly(rA)-oligo(dT)10 template in 1.0 min at 37° C. The samples were incubated for 30 minutes at 37° C., and all reactions were carried out in the linear range. Aliquot of 40 uL were spotted on glass fiber filters (Whatman GF/A) and processed for determination of trichloroacetic acid-insoluble radioactivity as described by Cheng Y. C., Dutschman G. E., Bastow K. F., Sarngadharan M. G., and Ting R. Y. C. (1987) J. BIOL CHEM 262:2187-2189. Poly(rA)-oligo(dT)10was used as template-primer.
Table 4 indicates the results obtained in this assay with examplary oligonucleotides of the invention. The oligonucleotides are identified by their respective "compound number".

[4] = biological target: HSV-1 DNA polymerase (Human herpesvirus 1, UniProt P04293); experiment: HSV DNA polymerase assay, HSV-1; format: biochemical; details: activated calf thymus DNA, 30 minutes at 37° C.
Experimental: (§2) HSV DNA polymerases were assayed as described by Ostrander M., and Cheng Y. C., (1980) BIOCHEM. BIOPHYS. ACTA 609:232-245. The standard assay mixture (total volume 50 uL) contained 25 mM Tris-HCl pH 8, 10 mM MgCl2, 0.5 mM dithiothreitol, 0.5 mg/mL BSA, 200 mM KCl, 100 ug/mL activated calf thymus DNA, 0.1 mM each dATP, dCTP, dGTP, 5 uM [^3 H]dTTP (2 Ci/mmol), 4-5×10-^4 units of enzyme, and different drug concentrations. After incubation at 37° C. for 30 minutes, the reaction mixture was spotted on 2.4 cm Whatman GF/A glass fiber filter discs and trichloroacetic acid-insoluble radioactivity was measured.
(§3) One unit of DNA polymerase activity is defined as the amount of enzyme which catalyzes the incorporation of 1 nanomol of dTMP into activated DNA/30 min. […] IC50 is that concentration (expressed in micromoles) of the novel oligonucleotide which results in 50% inhibition of the enzyme.

[5] = biological target: T2, HSV-2 DNA polymerase (Human herpesvirus 2, UniProt P89453); experiment: HSV DNA polymerase assay, HSV-2; format: biochemical; details: activated calf thymus DNA, 30 minutes at 37° C.
T2 sequence (P89453 1-1240): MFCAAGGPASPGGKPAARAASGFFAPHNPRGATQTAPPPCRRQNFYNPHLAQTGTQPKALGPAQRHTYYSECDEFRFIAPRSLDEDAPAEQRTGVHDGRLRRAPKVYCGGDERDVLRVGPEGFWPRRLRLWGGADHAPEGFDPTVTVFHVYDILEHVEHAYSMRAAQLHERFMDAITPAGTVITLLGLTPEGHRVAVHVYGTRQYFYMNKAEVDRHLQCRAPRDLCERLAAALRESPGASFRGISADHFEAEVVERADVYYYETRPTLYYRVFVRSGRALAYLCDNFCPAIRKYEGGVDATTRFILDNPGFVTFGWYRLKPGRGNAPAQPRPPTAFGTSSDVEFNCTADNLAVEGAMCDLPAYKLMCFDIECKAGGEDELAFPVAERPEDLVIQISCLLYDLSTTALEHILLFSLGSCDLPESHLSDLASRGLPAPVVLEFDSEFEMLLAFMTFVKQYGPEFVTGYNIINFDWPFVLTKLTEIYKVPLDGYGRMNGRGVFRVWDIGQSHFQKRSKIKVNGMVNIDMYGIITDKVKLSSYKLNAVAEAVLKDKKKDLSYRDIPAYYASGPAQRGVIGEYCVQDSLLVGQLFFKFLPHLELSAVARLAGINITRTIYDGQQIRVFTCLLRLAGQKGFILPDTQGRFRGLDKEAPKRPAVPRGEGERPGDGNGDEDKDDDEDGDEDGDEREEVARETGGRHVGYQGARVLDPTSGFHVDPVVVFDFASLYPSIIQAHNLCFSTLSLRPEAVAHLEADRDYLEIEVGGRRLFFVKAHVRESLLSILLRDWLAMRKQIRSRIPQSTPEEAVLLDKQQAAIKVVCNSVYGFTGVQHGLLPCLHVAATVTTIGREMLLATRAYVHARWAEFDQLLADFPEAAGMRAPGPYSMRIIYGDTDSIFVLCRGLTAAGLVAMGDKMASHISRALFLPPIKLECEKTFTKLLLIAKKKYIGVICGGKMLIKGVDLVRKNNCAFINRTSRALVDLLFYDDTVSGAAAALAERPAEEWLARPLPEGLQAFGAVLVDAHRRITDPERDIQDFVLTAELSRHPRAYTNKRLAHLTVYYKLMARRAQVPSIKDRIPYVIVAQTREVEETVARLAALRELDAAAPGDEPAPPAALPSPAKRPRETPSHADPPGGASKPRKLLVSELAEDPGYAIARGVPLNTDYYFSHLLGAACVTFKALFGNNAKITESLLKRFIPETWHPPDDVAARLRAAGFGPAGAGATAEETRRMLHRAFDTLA
Experimental: as §2, §3

[6] = biological target: T3, HIV-2 reverse transcriptase (Human immunodeficiency virus type 2 subtype A, UniProt P04584); experiment: HIV reverse transcriptase assay, HIV-2; format: biochemical; details: RNA-dependent enzyme assay, 30 minutes at 37° C.
T3 construct: HIV REVERSE TRANSCRIPTASE ASSAY
T3 sequence (P04584 613-1171 limits assumed): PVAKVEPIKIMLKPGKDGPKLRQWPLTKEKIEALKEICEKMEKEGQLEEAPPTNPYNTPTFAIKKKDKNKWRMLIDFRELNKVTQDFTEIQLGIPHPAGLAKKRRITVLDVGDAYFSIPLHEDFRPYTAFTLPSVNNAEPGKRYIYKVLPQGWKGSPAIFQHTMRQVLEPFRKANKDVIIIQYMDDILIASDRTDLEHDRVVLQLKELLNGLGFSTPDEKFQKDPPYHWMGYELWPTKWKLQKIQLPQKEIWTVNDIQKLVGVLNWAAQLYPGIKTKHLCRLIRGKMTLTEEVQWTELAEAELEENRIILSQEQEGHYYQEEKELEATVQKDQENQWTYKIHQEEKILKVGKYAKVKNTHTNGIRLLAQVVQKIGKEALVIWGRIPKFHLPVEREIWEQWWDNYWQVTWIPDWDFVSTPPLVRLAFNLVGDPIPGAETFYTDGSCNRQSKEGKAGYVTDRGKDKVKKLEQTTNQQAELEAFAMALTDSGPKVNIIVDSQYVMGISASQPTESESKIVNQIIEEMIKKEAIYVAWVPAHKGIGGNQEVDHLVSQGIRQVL

Chain of HSV-1 DNA polymerase (P04293 whole entry): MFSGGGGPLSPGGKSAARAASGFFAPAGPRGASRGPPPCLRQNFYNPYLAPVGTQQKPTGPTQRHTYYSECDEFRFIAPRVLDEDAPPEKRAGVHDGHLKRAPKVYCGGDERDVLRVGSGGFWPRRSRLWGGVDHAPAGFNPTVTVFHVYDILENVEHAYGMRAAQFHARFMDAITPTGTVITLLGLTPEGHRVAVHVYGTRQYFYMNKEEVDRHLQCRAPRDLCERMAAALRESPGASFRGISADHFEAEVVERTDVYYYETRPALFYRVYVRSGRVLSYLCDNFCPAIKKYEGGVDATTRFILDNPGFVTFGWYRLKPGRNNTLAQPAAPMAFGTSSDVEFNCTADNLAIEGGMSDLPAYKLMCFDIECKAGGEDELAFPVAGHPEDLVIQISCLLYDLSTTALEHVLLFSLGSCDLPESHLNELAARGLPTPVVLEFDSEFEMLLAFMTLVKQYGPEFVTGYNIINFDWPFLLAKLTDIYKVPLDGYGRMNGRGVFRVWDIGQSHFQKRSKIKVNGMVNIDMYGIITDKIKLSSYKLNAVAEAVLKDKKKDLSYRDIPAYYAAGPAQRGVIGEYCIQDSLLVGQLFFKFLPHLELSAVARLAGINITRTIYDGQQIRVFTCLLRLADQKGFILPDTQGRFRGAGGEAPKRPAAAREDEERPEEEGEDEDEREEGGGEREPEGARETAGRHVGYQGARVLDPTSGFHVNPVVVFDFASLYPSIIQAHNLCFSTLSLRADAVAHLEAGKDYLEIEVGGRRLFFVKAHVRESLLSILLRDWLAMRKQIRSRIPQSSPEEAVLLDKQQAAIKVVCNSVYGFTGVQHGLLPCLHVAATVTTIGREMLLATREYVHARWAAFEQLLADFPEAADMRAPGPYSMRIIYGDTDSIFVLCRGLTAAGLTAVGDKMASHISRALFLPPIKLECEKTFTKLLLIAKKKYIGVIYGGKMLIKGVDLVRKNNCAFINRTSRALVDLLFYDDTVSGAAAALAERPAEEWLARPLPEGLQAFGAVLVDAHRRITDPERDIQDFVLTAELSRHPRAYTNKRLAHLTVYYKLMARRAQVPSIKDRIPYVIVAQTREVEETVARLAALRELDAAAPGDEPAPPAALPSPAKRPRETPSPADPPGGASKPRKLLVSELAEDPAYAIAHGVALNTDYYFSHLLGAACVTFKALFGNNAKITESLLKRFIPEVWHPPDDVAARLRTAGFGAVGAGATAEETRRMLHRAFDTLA

Compound	# of plaques ([1]; 0.32 μg/ml)	# of plaques ([1]; 1.0 μg/ml)	# of plaques ([1]; 3.2 μg/ml)	# of plaques ([1]; 10 μg/ml)	Therapeutic Index TI = CD50/ED50 ([1]; HCMV, MRC-5 cells)	inhibition at 0.32 µg/mL ([1]; Human betaherpesvirus 5, AD169, MRC5, 0.32 μg/ml, read-out: % reduction (plaques)) [%]	inhibition at 1 µg/mL ([1]; Human betaherpesvirus 5, AD169, MRC5, 1.0 μg/ml, read-out: % reduction (plaques)) [%]	inhibition at 3.2 µg/mL ([1]; Human betaherpesvirus 5, AD169, MRC5, 3.2 μg/ml, read-out: % reduction (plaques)) [%]	inhibition at 10 µg/mL ([1]; Human betaherpesvirus 5, AD169, MRC5, 10 μg/ml, read-out: % reduction (plaques)) [%]	EC50 ([1]; Human betaherpesvirus 5, AD169, MRC5, regression analysis of viral plaque data, read-out: ED50 (plaques reduced to 50% of virus controls)) [µg/mL]	CC50 [2] [µg/mL]	IC50 [3] [µM]	IC50 [4] [µM]	IC50 [5] [µM]	IC50 [6] [µM]
Nc1nc(O)c2ncn(COC(CO)CO)c2n1 [DHPG, Ganciclovir]	39.5	33.5	10.5	0.0	> 588	14	27	77	100	1.7 (≈ 6.66 µM)	> 1000	–	–	–	–
5[dCyd3P(S)(O)]27dCyd [SdC28]	–	–	–	–	–	–	–	–	–	–	–	0.015 ± 0.004	0.03	0.09	0.071 ± 0.011
